The values below come from PubChem BioAssay (NCI).

Among the test systems are A549 NSCLC; ACHN renal; HOP-18 NSCLC; HOP-92 NSCLC; SNB-19 CNS; DMS 114 small cell lung; OVCAR-5 ovarian; SK-MEL-2 melanoma; BT-549 breast; HS 578T breast; PC-3 prostate.
Common to all, as to test: growth of human tumour cells (NCI), 48 h

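Five compound concentrations were applied to cells in 96-well plates for 48 hours; endpoints were derived by simple linear interpolation of the resulting dose-response curve. Here, GI50 denotes the concentration required for 50% inhibition of growth. The concentration for full growth arrest is given as TGI.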 Some results are limits rather than exact numbers.

On to `COc1ccc(N2C(=O)C3c4[nH]c5ccccc5c4C4CCC(C(C)(C)C)CC4C3C2=O)cc1OC` (configuration not stated), for which the TGI in the test with A549 NSCLC stood at 32.6 µM; with ACHN renal, 46.6 µM; with HOP-18 NSCLC, 40.8 µM; in the test with HOP-92 NSCLC, 44.8 µM; in the test on SNB-19 CNS it was 71.3 µM.

In the case of `CCCN(CCC)c1c([N+](=O)[O-])cc(C(=O)N(C)C)cc1[N+](=O)[O-]`, the TGI with A549 NSCLC was over 100 µM; in the test on ACHN renal it was 30.7 µM; in the test with DMS 114 small cell lung, over 100 µM; with OVCAR-5 ovarian, over 100 µM; in the test with SK-MEL-2 melanoma, over 100 µM.

Regarding `Oc1ccccc1C=Nc1ccccc1N=Cc1ccccc1O`, the TGI with A549 NSCLC, with ACHN renal, with DMS 114 small cell lung and with SNB-19 CNS was over 100 µM in each case.

For the molecule `O=C(NC(CO)CO)c1ccc2cc(C(=O)N3CC(CCl)c4ccc([N+](=O)[O-])cc43)[nH]c2c1` (configuration not stated), the TGI in the test with A549 NSCLC, in the test on ACHN renal, with BT-549 breast, in the test on HOP-92 NSCLC, in the test with HS 578T breast and in the test on OVCAR-5 ovarian was over 100 µM in each case. Further, the TGI in the test on PC-3 prostate, in the test with SK-MEL-2 melanoma and with SNB-19 CNS was over 100 µM in each case.

With `O=[N+]([O-])c1cc(Cl)ccc1S(=O)(=O)c1cc(Cl)cc2c1NCCC2`, the TGI in the test on A549 NSCLC, in the test on ACHN renal, with BT-549 breast, with HOP-92 NSCLC, in the test with HS 578T breast and in the test with OVCAR-5 ovarian was over 100 µM throughout. Besides, the TGI with PC-3 prostate, in the test on SK-MEL-2 melanoma and with SNB-19 CNS was over 100 µM throughout.

With `CCOC(=O)/C=C1/Nc2cc(F)c(F)cc2NC1=O`, the TGI with A549 NSCLC, in the test with ACHN renal, in the test with BT-549 breast, with HOP-92 NSCLC, in the test with HS 578T breast and with OVCAR-5 ovarian was over 100 µM in each case. In addition, the TGI in the test with PC-3 prostate, in the test with SK-MEL-2 melanoma and with SNB-19 CNS was over 100 µM throughout.

For the molecule `COC1CCC(n2c([C@@H]3CCCC(=O)N3c3ccc(F)c(F)c3)nc3cc(-c4c(C)noc4C)ccc32)CC1` (some centres not stated), the GI50 in the test with A549 NSCLC was 11.8 µM; in the test with ACHN renal, 4.78 µM; in the test with BT-549 breast, 10.3 µM; with HOP-92 NSCLC, 2.04 µM; in the test with HS 578T breast, 2.1 µM; in the test with OVCAR-5 ovarian, 17.2 µM. In addition, the GI50 in the test on PC-3 prostate was 3.5 µM; in the test on SK-MEL-2 melanoma, 11.4 µM; with SNB-19 CNS it was 9.31 µM. For the same molecule, the TGI in the test with A549 NSCLC is 69.5 µM; in the test on ACHN renal, 21.1 µM; in the test on BT-549 breast, 27.2 µM; with HOP-92 NSCLC, 14.2 µM; with HS 578T breast it was 9.86 µM; with OVCAR-5 ovarian, over 100 µM. For the same molecule, the TGI with PC-3 prostate was 44.1 µM; in the test on SK-MEL-2 melanoma, 35.5 µM; in the test with SNB-19 CNS, over 100 µM.

Regarding `CC1=CC(=O)/C(=C/N2CCNC2=S)C(=O)O1`, the TGI in the test with A549 NSCLC, with ACHN renal, with BT-549 breast, in the test with HOP-92 NSCLC, in the test on HS 578T breast and with OVCAR-5 ovarian was over 100 µM each time. Further, the TGI in the test on PC-3 prostate, with SK-MEL-2 melanoma and with SNB-19 CNS was over 100 µM throughout.

Take `COc1cc(C(CC(OC)OC)=C(C#N)C#N)cc(OC)c1OC`: the TGI in the test on A549 NSCLC is over 100 µM; in the test with ACHN renal, over 100 µM; in the test with DMS 114 small cell lung it was 87.6 µM; in the test with HOP-92 NSCLC, 50 µM; with OVCAR-5 ovarian, over 100 µM; with SK-MEL-2 melanoma, 49.4 µM. The same molecule displayed a TGI in the test on SNB-19 CNS of over 100 µM.

On to `CC(CN(C)C)C(=O)/C=C/c1ccc(Cl)c(Cl)c1` (configuration not stated), for which the TGI came out at 13.8 µM in the test with A549 NSCLC; 3.92 µM with ACHN renal; 4.45 µM with BT-549 breast; 3.48 µM in the test on HOP-92 NSCLC; 29 µM in the test with HS 578T breast; 4.07 µM in the test with OVCAR-5 ovarian. In addition, the values for the TGI with PC-3 prostate, in the test with SK-MEL-2 melanoma and in the test with SNB-19 CNS were 2.25 µM, 4.19 µM and 19.7 µM, respectively.

Take `C/C(NC(=O)c1ccccc1)=C(/C(=O)c1ccccc1)[C@@H]1OC(C)(C)O[C@@H]1[C@H]1COC(C)(C)O1`: the TGI is over 100 µM in the test with A549 NSCLC; over 100 µM in the test on ACHN renal; 82.4 µM in the test on BT-549 breast; 86.6 µM with HOP-92 NSCLC; over 100 µM with HS 578T breast; over 100 µM with OVCAR-5 ovarian. For the same molecule, the TGI in the test on PC-3 prostate was over 100 µM; in the test with SK-MEL-2 melanoma, 54.9 µM; in the test on SNB-19 CNS, over 100 µM.

For the molecule `CC(C)C(/C=C/c1ccccc1)=N\NC(=S)NN`, the TGI with A549 NSCLC, in the test on ACHN renal, with BT-549 breast, with HOP-92 NSCLC, in the test with HS 578T breast and in the test on OVCAR-5 ovarian was over 100 µM in each case. Moreover, the TGI in the test with PC-3 prostate, in the test with SK-MEL-2 melanoma and in the test with SNB-19 CNS was over 100 µM each time.
